The source made the active and inactive calls.
Key:
Mus musculus = species: Mus musculus; test: Antineoplastic activity against mammary adenocarcinoma M16c cell; IA=Inactive; assay type: functional
L1210 = test: Antineoplastic activity against L1210 cell line; IA=Inactive; assay type: functional, cell-based; settings: Mus musculus
P388 = test: Antineoplastic activity against NCI P388 cell; IA=Inactive; assay type: functional, cell-based; settings: Mus musculus

Measured: Activity

Cn1nnc2c(C(N)=O)cnn2c1=O
inactive: Mus musculus | L1210 | P388

Source: ChEMBL document CHEMBL1123480, “Pyrazole derivatives. 5. Synthesis and antineoplastic activity of 3-(2-chloroethyl)-3,4-dihydro-4-oxopyrazolo[5,1-d]-1,2,3, 5-tetrazine-8-carboxamide and related compounds” (J Med Chem, 1986)
